Assay results published in US20240415819A1, “MACROCYCLIC COMPOUNDS AS PROTEASOME SUBUNIT BETA TYPE-5 INHIBITORS” (Lead Discovery Center GmbH, priority 2021, published 2024).

Columns and labels:
[1] = system: Hs 746T (human gastric carcinoma cell line); assay: 48 hr CTG viability assay, Hs 746T; type: cell-based; conditions: Hs746T, 48 hr CTG, read-out: Hs 746T IC50
Procedure, shortened: (§1)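 Growth inhibition by compound over 48 h; IC50 (nM) derived from duplicate CellTiter-Glo luminescence readings across 0.0015–10 uM.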

[2] = target: T1, β5 subunit of the human immunoproteasome (IPS) (Homo sapiens, UniProt P28062); assay: β5 inhibition assay, human immunoproteasome (Suc-LLVY-AMC); type: biochemical; conditions: IC50 class, Suc-LLVY-AMC substrate
T1 construct: purchased Boston Biochem E-370
Procedure, shortened: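 Human immunoproteasome (1 nM final) was preincubated 10 min at RT with compound in 100 mM HEPES pH 7.5, 50 mM NaCl, 0.02% SDS, 1 mM DTT. Suc-LLVY-AMC (22.6 μM final) was then added for 4 h at RT in the dark. After stopping with 1 μM bortezomib, AMC fluorescence was read (ex 355/em 460 nm).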

[3] = system: RPMI 8226 (B lymphocyte cell line, multiple myeloma); assay: 48 hr CTG viability assay, RPMI 8226; type: cell-based; conditions: Homo sapiens, RPMI-8226; 48 hr CTG; read-out: RPMI-8226 IC50
Procedure, shortened: as §1

[4] = system: A549 (human lung carcinoma cell line); assay: Glo assay of A549 cells (Table 3; ProteasomeGlo plating scheme); type: cell-based; conditions: Homo sapiens; A549 cells; read-out: PGLo A549
Procedure, shortened: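 Luminescent read-out of cellular chymotrypsin-like proteasome activity: cells exposed to compound 105 min at 37° C., 5% CO2, then given Suc-LLVY-Glo reagent, shaken 2-5 min and kept dark 10-15 min before reading. Values are IC50 [nM].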

[5] = target: T2, β5 subunit of the human constitutive proteasome (CPS) (Homo sapiens, UniProt P28074); assay: β5 inhibition assay, human constitutive proteasome (Suc-LLVY-AMC); type: biochemical; conditions: IC50 class, Suc-LLVY-AMC substrate
T2 construct: purchased Boston Biochem E-360
Method: The enzymatic activity of the β5 subunit of the human constitutive proteasome (CPS) is analyzed. In another assay, which differs from the assay of the human constitutive proteasome only in using the human immunoproteasome (IPS) the enzymatic activity of the β5 subunit of the human immunoproteasome (IPS) is analyzed. […] Inhibition is indicated as IC50 [nM] (“-”=not measured).

[6] = system: MM1 S (B lymphoblast cell line); assay: 48 hr CTG viability assay, MM1S; type: cell-based; conditions: Homo sapiens, 48 hr CTG, read-out: MM1S IC50
Procedure, shortened: as §1

IC50 [1]	IC50 [2]	IC50 [3]	IC50 [4]	IC50 [5]	IC50 [6]	Compound
< 100 nM	< 100 nM	< 100 nM	100 to 500 nM	< 100 nM	< 100 nM	Cc1ccc2cc1CNC(=O)[C@H](CCc1ccccc1)NC(=O)[C@@H](NC(=O)CCNCC1CCCC1)CC(=O)N1CCCC(CCO2)C1 (stereo partly drawn) [Compound 677, 3-((cyclopentylmethyl)amino)-N-((9S,12S)-5^4-methyl-8,11,14-trioxo-9-phenethyl-4-oxa-7,10-diaza-1(3,1)-piperidina-5(1,3)-benzenacyclotetradecaphane-12-yl)propanamide]
< 100 nM	< 100 nM	< 100 nM	< 100 nM	< 100 nM	< 100 nM	CC(=O)N1CC(CC(=O)N[C@H]2CC(=O)N3CCCC(CCOc4ccc(C)c(c4)CNC(=O)[C@H](CCc4ccccc4)NC2=O)C3)C1 (stereo partly drawn) [Compound 697, 2-(1-acetylazetidin-3-yl)-N-((9S,12S)-5^4-methyl-8,11,14-trioxo-9-phenethyl-4-oxa-7,10-diaza-1(3,1)-piperidina-5(1,3)-benzenacyclotetradecaphane-12-yl)acetamide]
< 100 nM	< 100 nM	100 to 500 nM	100 to 500 nM	< 100 nM	< 100 nM	Cc1ccc2cc1CNC(=O)[C@H](CCc1ccccc1)NC(=O)[C@@H](NC(=O)C1CC3(CNC3)C1)CC(=O)N1CCCC(CCO2)C1 (stereo partly drawn) [Compound 721, N-((9S,12S)-5^4-methyl-8,11,14-trioxo-9-phenethyl-4-oxa-7,10-diaza-1(3,1)-piperidina-5(1,3)-benzenacyclotetradecaphane-12-yl)-2-azaspiro[3.3]heptane-6-carboxamide]
< 100 nM	< 100 nM	< 100 nM	< 100 nM	< 100 nM	< 100 nM	Cc1ccc2cc1CNC(=O)[C@H](CCc1ccccc1)NC(=O)[C@@H](NC(=O)CCO[C@H]1C[C@@H]3CC[C@H]1C3)CC(=O)N1CCCC(CCO2)C1 [Compound 642, 3-(((1S,2S,4R)-bicyclo[2.2.1]heptan-2-yl)oxy)-N-((9S,12S)-5^4-methyl-8,11,14-trioxo-9-phenethyl-4-oxa-7,10-diaza-1(3,1)-piperidina-5(1,3)-benzenacyclotetradecaphane-12-yl)propanamide]
500 to 1000 nM	< 100 nM	100 to 500 nM	< 100 nM	< 100 nM	100 to 500 nM	Cc1ccc2cc1CNC(=O)[C@H](CCc1ccccc1)NC(=O)[C@@H](NC(=O)[C@@H](N)CCC(=O)O)CC(=O)N1CCCC(CCO2)C1 (stereo partly drawn) [Compound 724, (4S)-4-amino-5-(((9S,12S)-5^4-methyl-8,11,14-trioxo-9-phenethyl-4-oxa-7,10-diaza-1(3,1)-piperidina-5(1,3)-benzenacyclotetradecaphane-12-yl)amino)-5-oxopentanoic acid]
< 100 nM	< 100 nM	< 100 nM	< 100 nM	< 100 nM	< 100 nM	Cc1ccc2cc1CNC(=O)[C@H](CCc1ccccc1)NC(=O)[C@@H](NC(=O)CCNC1CCC1)CC(=O)N1CCCC(CCO2)C1 (stereo partly drawn) [Compound 680, 3-(cyclobutylamino)-N-((9S,12S)-5^4-methyl-8,11,14-trioxo-9-phenethyl-4-oxa-7,10-diaza-1(3,1)-piperidina-5(1,3)-benzenacyclotetradecaphane-12-yl)propanamide]
< 100 nM	< 100 nM	< 100 nM	< 100 nM	< 100 nM	< 100 nM	Cc1ccc2cc1CNC(=O)[C@H](CCc1ccccc1)NC(=O)[C@@H](NC(=O)CCOC1CC3(COC3)C1)CC(=O)N1CCCC(CCO2)C1 (stereo partly drawn) [Compound 590, 3-((2-oxaspiro[3.3]heptan-6-yl)oxy)-N-((9S,12S)-5^4-methyl-8,11,14-trioxo-9-phenethyl-4-oxa-7,10-diaza-1(3,1)-piperidina-5(1,3)-benzenacyclotetradecaphane-12-yl)propanamide]
100 to 500 nM	< 100 nM	< 100 nM	100 to 500 nM	< 100 nM	< 100 nM	Cc1ccc2cc1CNC(=O)[C@H](CCc1ccccc1)NC(=O)[C@@H](NC1CC3C=CC1C3)CC(=O)N1CCCC(CCO2)C1 (stereo partly drawn) [Compound 711, (9S,12S)-12-(bicyclo[2.2.1]hept-5-en-2-ylamino)-5^4-methyl-9-phenethyl-4-oxa-7,10-diaza-1(3,1)-piperidina-5(1,3)-benzenacyclotetradecaphane-8,11,14-trione]
< 100 nM	< 100 nM	< 100 nM	< 100 nM	< 100 nM	< 100 nM	Cc1ccc2cc1CNC(=O)[C@H](CCc1ccccc1)NC(=O)[C@@H](NC(=O)CCNCc1ccccc1)CC(=O)N1CCCC(CCO2)C1 (stereo partly drawn) [Compound 647, 3-(benzylamino)-N-((9S,12S)-5^4-methyl-8,11,14-trioxo-9-phenethyl-4-oxa-7,10-diaza-1(3,1)-piperidina-5(1,3)-benzenacyclotetradecaphane-12-yl)propanamide]
< 100 nM	< 100 nM	< 100 nM	< 100 nM	< 100 nM	< 100 nM	Cc1ccc2cc1CNC(=O)[C@H](CCc1ccccc1)NC(=O)[C@@H](NC(=O)N1CC(O)C1)CC(=O)N1CCCC(CCO2)C1 (stereo partly drawn) [Compound 691, 3-hydroxy-N-((9S,12S)-5^4-methyl-8,11,14-trioxo-9-phenethyl-4-oxa-7,10-diaza-1(3,1)-piperidina-5(1,3)-benzenacyclotetradecaphane-12-yl)azetidine-1-carboxamide]
< 100 nM	< 100 nM	< 100 nM	< 100 nM	< 100 nM	< 100 nM	COCCOCCC(=O)N[C@H]1CC(=O)N2CCCC(CCOc3ccc(C)c(c3)CNC(=O)[C@H](CCc3ccccc3)NC1=O)C2 (stereo partly drawn) [Compound 596, 3-(2-methoxyethoxy)-N-((9S,12S)-5^4-methyl-8,11,14-trioxo-9-phenethyl-4-oxa-7,10-diaza-1(3,1)-piperidina-5(1,3)-benzenacyclotetradecaphane-12-yl)propanamide]
500 to 1000 nM	< 100 nM	100 to 500 nM	100 to 500 nM	< 100 nM	100 to 500 nM	Cc1ccc2cc1CNC(=O)[C@H](CCc1ccccc1)NC(=O)[C@@H](NC(=O)C(C)(C)CO)CCCC(=O)NCCCCO2 [Compound 722, 3-hydroxy-2,2-dimethyl-N-((12S,15S)-1^4-methyl-8,13,16-trioxo-15-phenethyl-2-oxa-7,14,17-triaza-1(1,3)-benzenacyclooctadecaphane-12-yl)propanamide]
< 100 nM	< 100 nM	< 100 nM	< 100 nM	< 100 nM	< 100 nM	Cc1ccc2cc1CNC(=O)[C@H](CCc1ccccc1)NC(=O)[C@@H](NCC(C)(C)CO)CC(=O)N1CCCC(CCO2)C1 (stereo partly drawn) [Compound 690, (9S,12S)-12-((3-hydroxy-2,2-dimethylpropyl)amino)-5^4-methyl-9-phenethyl-4-oxa-7,10-diaza-1(3,1)-piperidina-5(1,3)-benzenacyclotetradecaphane-8,11,14-trione]
< 100 nM	< 100 nM	< 100 nM	< 100 nM	< 100 nM	< 100 nM	Cc1ccc2cc1CNC(=O)[C@H](CCc1ccccc1)NC(=O)[C@@H](NC(=O)CCN1CCC3(CCOC3)C1)CC(=O)N1CCCC(CCO2)C1 (stereo partly drawn) [Compound 640, N-((9S,12S)-5^4-methyl-8,11,14-trioxo-9-phenethyl-4-oxa-7,10-diaza-1(3,1)-piperidina-5(1,3)-benzenacyclotetradecaphane-12-yl)-3-(2-oxa-7-azaspiro[4.4]nonan-7-yl)propanamide]
< 100 nM	< 100 nM	< 100 nM	< 100 nM	< 100 nM	< 100 nM	Cc1ccc2cc1CNC(=O)[C@H](CCc1ccccc1)NC(=O)[C@@H](NC(=O)Cc1ccccc1)CCNC(=O)N1CCCC(CCO2)C1 (stereo partly drawn) [Compound 653, N-((9S,12S)-5^4-methyl-8,11,16-trioxo-9-phenethyl-4-oxa-7,10,15-triaza-1(3,1)-piperidina-5(1,3)-benzenacyclohexadecaphane-12-yl)-2-phenylacetamide]
< 100 nM	< 100 nM	< 100 nM	< 100 nM	< 100 nM	< 100 nM	Cc1ccc2cc1CNC(=O)[C@H](CCc1ccccc1)NC(=O)[C@@H](NC(=O)CCOCC1CCCC1)CC(=O)N1CCCC(CCO2)C1 (stereo partly drawn) [Compound 625, 3-(cyclopentylmethoxy)-N-((9S,12S)-5^4-methyl-8,11,14-trioxo-9-phenethyl-4-oxa-7,10-diaza-1(3,1)-piperidina-5(1,3)-benzenacyclotetradecaphane-12-yl)propanamide]
